Measurements taken from article PMC12022901 (Frontiers in Pharmacology, 2025).

Experiments:
[1] = system: Coagulation markers (activated partial thromboplastin time and international normalized ratio); test: Coagulation markers measured 3 h post dose; type: in vivo, human (healthy volunteers)
[2] = cited from earlier work
[3] = Safety: adverse events in the trial cohorts; settings: cohort of the named antiepileptic drug
[4] = Pharmacokinetics of factor Xa inhibitors at baseline and at gabapentin steady-state (open-label fixed-sequence DDI trial); settings: human, in vivo, po, oral microdose cocktail, GM
Excerpt: (§1) A p-value < 0.05 was considered significant.

[5] = Pharmacokinetics of factor Xa inhibitors at baseline and at pregabalin steady-state (open-label fixed-sequence DDI trial); settings: human, in vivo, po, oral microdose cocktail, GM
Excerpt: as §1

[6] = clinical; settings: for Vd/F: Vz/F; for half-life: t1/2, oral microdose cocktail; for exposure (AUC) during carbamazepine relative to baseline: microdosed FXaI
[7] = parameters: method as in Brown, 2014; settings: ref Brown, 2014; cited from earlier work
[8] = system: CYP3A; test: CYP3A activity assessed by pharmacokinetics of microdosed midazolam (limited sampling, AUC2-4, eCLmet)
Method: We simultaneously quantified the effect on CYP3A activity with an oral midazolam microdose (30 µg) (Figure 1).
Carbamazepine, gabapentin, and pregabalin were dosed to steady-state during a treatment period of 21 d for carbamazepine, 13 d for gabapentin, and 21 d for pregabalin, followed by the evaluation of their perpetrator effects. Steady-state was ensured until the last blood sample was drawn. Carbamazepine was titrated to a maximum dose of 200 mg twice a day, if possible. If this dose could not be reached due to adverse events, carbamazepine was titrated to therapeutic plasma concentrations (5–10 μg/mL), with the lower range chosen to ensure the safety of the participants. Gabapentin was administered at a dose of 400 mg three times a day and pregabalin at a dose of 300 mg twice a day. Single-dose pharmacokinetics of the microdosed FXaI were assessed at baseline and at the end of the above mentioned treatment period, at steady-state of the perpetrator.
All collected samples were processed within 20 min and plasma was stored at ≤ −20°C until analysis.
Non-compartmental analyses were conducted to assess the pharmacokinetics of the FXaI and midazolam utilizing Phoenix WinNonlin 8.3 (Certara, Inc., Princeton, NJ, United States). Cmax and the time to reach Cmax (tmax) were directly obtained from the concentration data. The area under the concentration-time curve from 0 to infinity ( AUC∞ ) was determined using the log-linear trapezoidal rule with extrapolation to infinity. The half-life (t1/2) was calculated as ln2/λz , with the elimination rate constant λz being estimated utilizing log-linear regression of the elimination phase. Apparent oral CL (CL/F) and volume of distribution (Vz/F) were calculated using standard equations for non-compartmental analysis.

[9] = 180 min after edoxaban 60 mg alone
[10] = 180 min after edoxaban 60 mg with carbamazepine
[11] = human, in vivo, po, oral microdose cocktail (25 µg apixaban, 50 µg edoxaban, 25 µg rivaroxaban), baseline, GM
[12] = human, in vivo, po, oral microdose cocktail, during carbamazepine steady-state, GM
[13] = human, in vivo, po, oral microdose cocktail, baseline, GM
[14] = human, in vivo, po, oral microdose cocktail, at carbamazepine steady-state, GM
[15] = human, in vivo, po, at carbamazepine steady-state, GM
[16] = human, in vivo, po, baseline, GM
[17] = oral microdose cocktail, at carbamazepine steady-state, GM
[18] = oral microdose cocktail, baseline, GM
[19] = healthy volunteers, 7-d rifampin treatment, ref Mendell et al., 2015
[20] = carbamazepine cohort, at carbamazepine steady-state, with edoxaban 60 mg
[21] = carbamazepine cohort, at carbamazepine steady-state, with microdosed FXaI
[22] = carbamazepine cohort, baseline, with edoxaban 60 mg
[23] = gabapentin cohort, at gabapentin steady-state, with edoxaban 60 mg
[24] = gabapentin cohort, at gabapentin steady-state, with microdosed FXaI
[25] = gabapentin cohort, baseline, with edoxaban 60 mg
[26] = pregabalin cohort, at pregabalin steady-state, with edoxaban 60 mg
[27] = pregabalin cohort, at pregabalin steady-state, with microdosed FXaI
[28] = pregabalin cohort, baseline, with edoxaban 60 mg

With `CN1CCc2nc(C(=O)N[C@@H]3C[C@@H](C(=O)N(C)C)CC[C@@H]3NC(=O)C(=O)Nc3ccc(Cl)cn3)sc2C1` [Edoxaban, edoxaban] the “INR, mean” value [1, 9] was 1.23, the “aPTT, mean” value [1, 9] was 33.63 and the “INR, mean” value [1, 10] was 1.14. For the same compound, the “aPTT, mean” value [1, 10] was 29.56, the “coagulation changes induced by edoxaban” value ([1]; therapeutic dose or microdose, with gabapentin or pregabalin (data not shown)) was “not influenced” and the AUC reduction ([2]; co-administration with rifampin, ref Lixiana, 2017) was “up to 35%”.

With `CC(C)C[C@H](CN)CC(=O)O` [pregabalin] the “adverse events deemed possibly related to the trial medication” value (from here on “adverse events deemed possibly related”) [3] was 25, the adverse events overall [3] was 37 and the “participants with adverse events” value [3] was 11 of 12. For the same compound, the “severe or serious adverse events” value [3] was “none was severe or serious”.

With `COc1ccc(-n2nc(C(N)=O)c3c2C(=O)N(c2ccc(N4CCCCC4=O)cc2)CC3)cc1` [µ-apixaban, apixaban] the AUC(0-inf) ([4]; baseline) was 6.95 ng·h/mL, the AUC(0-inf) ([4]; during gabapentin steady-state) was 6.48 ng·h/mL and the Cmax ([4]; baseline) was 0.822 ng/mL. The Cmax ([4]; during gabapentin steady-state) was 0.775 ng/mL, the reduction in exposure ([2]; combined use with inducers of both CYP3A4 and P-gp such as carbamazepine, ref Eliquis, 2024) was about 50% and the AUC(0-inf) ([5]; before pregabalin) was 6.2 ng·h/mL. The AUC(0-inf) ([5]; during pregabalin steady-state) was 6.07 ng·h/mL, the Cmax ([5]; before pregabalin) was 0.782 ng/mL and the Cmax ([5]; during pregabalin steady-state) was 0.775 ng/mL. The AUC(0-inf) [6, 11] was 5.9 ng·h/mL, the AUC(0-inf) [6, 12] was 3.92 ng·h/mL and the Cmax [6, 13] was 0.719 ng/mL. The Cmax [6, 12] was 0.634 ng/mL, the Vd/F [6, 14] was 36 L and the Vd/F [6, 13] was 36 L. The half-life [6, 15] was 3.95 h, the half-life [6, 16] was 5.97 h and the “exposure (AUC) during carbamazepine relative to baseline” value [6] was 66%. For the same compound, the tmax ([6]; oral microdose cocktail (solution), baseline, GM) was 1.6 h, the CL/F [6, 17] was 6.4 L/h and the tmax [6, 17] was 1.72 h. For the same compound, the CL/F [6, 18] was 4.2 L/h.

In the case of `NCC1(CC(=O)O)CCCCC1` [gabapentin], the “adverse events deemed possibly related” value [3] is reported as 21, the adverse events overall [3] is reported as 39 and the “participants with adverse events” value [3] is reported as 11 of 11. The “severe or serious adverse events” value [3] was “none was severe or serious”.

`O=C(NC[C@H]1CN(c2ccc(N3CCOCC3=O)cc2)C(=O)O1)c1ccc(Cl)s1` [µ-rivaroxaban, rivaroxaban] showed an AUC(0-inf) ([4]; baseline) of 3.23 ng·h/mL, an AUC(0-inf) ([4]; during gabapentin steady-state) of 2.98 ng·h/mL and a Cmax ([4]; baseline) of 0.718 ng/mL. It also gave a Cmax ([4]; during gabapentin steady-state) of 0.688 ng/mL, an AUC(0-inf) ([5]; before pregabalin) of 3.08 ng·h/mL and an AUC(0-inf) ([5]; during pregabalin steady-state) of 3.03 ng·h/mL. For the same compound, the Cmax ([5]; before pregabalin) was 0.783 ng/mL, the Cmax ([5]; during pregabalin steady-state) was 0.744 ng/mL and the tmax ([6]; human, in vivo, po) was 0.817 h. For the same compound, the AUC(0-inf) [6, 11] was 3.1 ng·h/mL, the AUC(0-inf) [6, 12] was 1.73 ng·h/mL and the Cmax [6, 13] was 0.695 ng/mL. The Cmax [6, 12] was 0.524 ng/mL, the Vd/F [6, 14] was 63 L and the Vd/F [6, 13] was 61 L. The half-life [6, 15] was 3.02 h, the half-life [6, 16] was 5.23 h and the “exposure (AUC) during carbamazepine relative to baseline” value [6] was 56%. It also gave a CL/F [6, 17] of 14 L/h, a tmax [6, 17] of 0.817 h and a CL/F [6, 18] of 8.0 L/h.

In the case of `CN1CCc2nc(C(=O)N[C@@H]3C[C@@H](C(=O)O)CC[C@@H]3NC(=O)C(=O)Nc3ccc(Cl)cn3)sc2C1` [Edoxaban M-4], the AUC increase [2, 19] is listed as 2.86 fold, the Cmax increase [2, 19] is listed as 5.06 fold and the “anticoagulant effects of M-4 and edoxaban” value [7] is listed as “comparable anticoagulant effects”.

For `Cc1ncc2n1-c1ccc(Cl)cc1C(c1ccccc1F)=NC2` [Midazolam, midazolam], the eCLmet [8, 20] was 5654 mL/h, the “eCLmet GMR to baseline” value [8, 20] was 5.54 and the eCLmet [8, 21] was 5636 mL/h. The “eCLmet GMR to baseline” value [8, 21] was 5.52, the eCLmet [8, 22] was 997 mL/h and the “eCLmet GMR to baseline” value [8, 22] was 0.98. The eCLmet ([8]; carbamazepine cohort, baseline, with microdosed FXaI) was 1021 mL/h, the “decrease of midazolam AUC2-4” value ([8]; co-administration of carbamazepine) was 82% and the eCLmet [8, 23] was 923 mL/h. The “eCLmet GMR to baseline” value [8, 23] was 0.99, the eCLmet [8, 24] was 957 mL/h and the “eCLmet GMR to baseline” value [8, 24] was 1.02. For the same compound, the eCLmet [8, 25] was 931 mL/h, the “eCLmet GMR to baseline” value [8, 25] was 1.0 and the eCLmet ([8]; gabapentin cohort, baseline, with microdosed FXaI) was 936 mL/h. For the same compound, the “effect on midazolam pharmacokinetics” value ([8]; gabapentin steady-state) was “did not alter”, the eCLmet [8, 26] was 1306 mL/h and the “eCLmet ratio to baseline” value [8, 26] was 1.23. For the same compound, the eCLmet [8, 27] was 1198 mL/h, the “eCLmet ratio to baseline” value [8, 27] was 1.13 and the eCLmet [8, 28] was 1201 mL/h. For the same compound, the “eCLmet ratio to baseline” value [8, 28] was 1.13, the eCLmet ([8]; pregabalin cohort, baseline, with microdosed FXaI) was 1061 mL/h and the “effect on midazolam pharmacokinetics” value ([8]; pregabalin steady-state) was “did not alter”.

For `NC(=O)N1c2ccccc2C=Cc2ccccc21` [carbamazepine], the “adverse events deemed possibly related” value [3] was 19, the adverse events overall [3] was 29 and the “participants with adverse events” value [3] was 12 of 13. The “severe or serious adverse events” value [3] was “none was serious, one was severe”.
